Test results as given in patent publication US20150239831A1, “INHIBITORS OF CENTRAL NERVOUS SYSTEM VASOACTIVE INHIBITORY PEPTIDE RECEPTOR 2” (The Trustees Of Columbia University In The City Of New York, priority 2012, published 2015).
Read-outs that look alike come from different tables or passages of the source.

Experiments:
VIPR2 [1] = target: T1, VIPR2 (Homo sapiens, UniProt P41587); experiment: BRET-based VIPR2 activation assay (CAMYEL cAMP sensor, CHO cells, VIP background); format: cell-based
T1 sequence (P41587 24-438): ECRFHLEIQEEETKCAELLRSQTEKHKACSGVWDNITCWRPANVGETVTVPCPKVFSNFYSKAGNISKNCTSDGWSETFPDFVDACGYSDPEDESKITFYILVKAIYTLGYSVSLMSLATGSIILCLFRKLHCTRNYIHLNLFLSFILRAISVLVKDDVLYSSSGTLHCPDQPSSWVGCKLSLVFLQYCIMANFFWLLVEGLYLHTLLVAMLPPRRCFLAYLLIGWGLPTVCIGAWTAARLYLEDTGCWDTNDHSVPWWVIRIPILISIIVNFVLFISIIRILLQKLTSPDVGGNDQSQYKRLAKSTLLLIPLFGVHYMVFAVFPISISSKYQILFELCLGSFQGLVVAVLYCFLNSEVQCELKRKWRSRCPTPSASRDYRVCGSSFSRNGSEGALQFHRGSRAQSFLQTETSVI
Excerpt: In such a system, a detector cell is used which expresses both the VIPR2 receptor and “CAMYEL,” a YFP-Epac-RLuc8 BRET sensor construct. This construct includes Epac1, a guanine nucleotide exchange factor activated by direct binding of cAMP, fused with an enhanced YFP and Renilla luciferase 8 (Rluc8) allowing BRET upon cAMP-induced conformational changes (Jiang et al., 2007, J Biol Chem. 282:10576-10584). In response to elevated cAMP levels, there is a conformational change in Epac and therefore a change in the proximity of the fused chromophores, Rluc8 and YFP, resulting in measurable energy transfer. Coexpression of this BRET construct with VIPR2, optionally tagged at the N-terminus with a signal peptide and FLAG epitope (SF-VIPR2), for example in HEK293 cells, allows for detection of a VIPR2-specific response to cAMP. BRET readout may be calculated by quantifying the ratio of the light emitted by the acceptor, YFP (λ=525 nm), over the emission from the donor, RLuc8 (λ=485 nm). The proximity of the donor and acceptor, and therefore the BRET ratio, decreases in the presence of cAMP. In non-limiting specific embodiments, a stable cell line may be generated for this assay using the Flp-In T-Rex system in HEK293 cells. This system allows site-specific single copy integration of the gene of interest and control of expression levels using the Tet-repressor site making receptor expression tetracycline-inducible. For example, a CAMYEL and VIPR2 expressing line may be induced with 0.01 μg/ml tetracycline, then, 24 hours later cells may be collected and distributed into 96-well plates. After treatment with candidate inhibitor compound, for example at 5, 1 and 0.5 μM concentrations, cells may be incubated with the light emitting luciferin, coelenterazine H, for 5 min and incubated for 5 min with VIP at increasing concentrations, for example ranging from […] to 10 μM. The fluorescence and luminescence may then be quantified, for example using a PHERAstar (BMG) plate reader. […] Alternatively, analogous experiments may be performed using human cells harvested from a patient having a VIPR2 copy number variation, for example (but not by way of limitation) pluripotent stem cells prepared from such a patient and then transfected with a CAMYEL construct.
Numerous cellular assays were developed that were able to detect VIP responses absent of interference from non-specific vasopressin receptors using this CHO based system. VIPR2 is a Gs coupled receptor. Activation of VIPR2 by VIP leads to both an elevation in cAMP signaling and the recruitment of β-arrestin. A variety of combinations can be transiently transfect into these CHO cells for the assessment of cellular responses to VIP. For the BRET readout CHO cell lines expressing an YFP-Epac-RLuc8 (CAMYEL) BRET sensor were used to detect changes in cAMP. This construct includes Epac1, a guanine nucleotide exchange factor activated by direct binding of cAMP, fused to an enhanced YFP and RLuc8 allowing a change in BRET upon cAMP-induced conformational changes. The key for medium to high throughput screening assays is the use of stable cell lines allowing the continuous assaying of multiple compounds with the ability to generate large numbers of cells for rapid use. In these lines VIPR2 was expressed as one of the stable cell lines assays. This was introduced into the CHO-Flp-IN to allow the generation of isogenic stable cell lines expressing high levels of VIPR2 under control of the CMV promoter. This has been introduced into this line together with the CAMYEL construct previously described. This allows for detection of VIPR2-specific responses to cAMP. EYFP fluorescence and RLuc8 luminescence is quantified in the presence of 5 μM light-emitting luciferin, coelenterazine H, using a PHERAstar (BMG) plate reader. BRET is calculated by quantifying the ratio of the light emitted by the acceptor, YFP (λ=525 nm), over the emission from the donor, RLuc8 (λ=485 nm).
3. […]

VPAC1 = target: T2, VPAC1 (Homo sapiens, UniProt P32241); conditions: Chu et al., 2010; cited from earlier work
T2 sequence (P32241 31-457): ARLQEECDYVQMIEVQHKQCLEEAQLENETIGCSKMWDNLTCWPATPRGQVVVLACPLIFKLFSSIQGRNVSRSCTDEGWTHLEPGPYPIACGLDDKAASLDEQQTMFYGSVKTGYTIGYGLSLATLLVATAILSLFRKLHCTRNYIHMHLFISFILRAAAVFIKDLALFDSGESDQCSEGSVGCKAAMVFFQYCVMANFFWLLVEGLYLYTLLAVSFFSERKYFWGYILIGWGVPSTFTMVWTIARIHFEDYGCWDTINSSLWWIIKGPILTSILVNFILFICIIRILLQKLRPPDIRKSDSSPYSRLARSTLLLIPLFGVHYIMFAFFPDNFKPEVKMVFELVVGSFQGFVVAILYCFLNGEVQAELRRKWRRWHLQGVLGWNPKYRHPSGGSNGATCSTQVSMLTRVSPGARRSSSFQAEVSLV

PAC1 = target: T3, PAC1 (Homo sapiens, UniProt P41586); conditions: Chu et al., 2010; cited from earlier work
T3 sequence (P41586 21-468): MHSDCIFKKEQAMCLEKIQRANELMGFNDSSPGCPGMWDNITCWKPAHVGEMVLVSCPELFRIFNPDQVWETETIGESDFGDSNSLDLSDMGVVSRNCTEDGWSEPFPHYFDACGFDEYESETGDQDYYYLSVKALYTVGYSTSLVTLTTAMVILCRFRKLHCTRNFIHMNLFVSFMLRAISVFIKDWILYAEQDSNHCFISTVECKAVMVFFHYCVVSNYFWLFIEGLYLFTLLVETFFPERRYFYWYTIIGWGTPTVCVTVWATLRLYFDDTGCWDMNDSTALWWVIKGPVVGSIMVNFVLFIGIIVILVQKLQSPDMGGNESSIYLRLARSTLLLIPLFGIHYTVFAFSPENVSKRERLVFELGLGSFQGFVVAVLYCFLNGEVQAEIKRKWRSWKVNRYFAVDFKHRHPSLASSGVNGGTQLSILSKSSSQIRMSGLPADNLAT

VIPR2 [2] = target: T1, VIPR2; experiment: % Activity: inhibition of VIP-induced cAMP elevation and β-arrestin recruitment (Table 2); format: cell-based; design: expressed in transfected cells; host or cells: HEK293 cells transfected with VIPR2 in pCDNA3.1 (as described)
How it was run: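 Recruitment of β-arrestin measured by β-gal fragment complementation luminescence in HEK293 cells co-expressing VIPR2-ProLink and β-arrestin2-EA after 2 h compound at 37° C. VIP-driven cAMP rise in stable hVIPR2 HEK293 cells measured by HTRF after 30 min with inhibitor and VIP.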

[3] = Table 3, read-out: IC50 (from BRET)

Compound	IC50 (VIPR2 [1]; [3])	IC50 (VIPR2 [1]; Table 1, read-out: IC50)	further results
O=C(N[C@H]1c2ccccc2C[C@H]1O)[C@H](Cc1ccccc1)C[C@H](O)CNS(=O)(=O)c1ccc([N+](=O)[O-])cc1 [Compound 1]	–	–	VIPR2 inhibition in BRET-based assay (in words) (VIPR2 [1]; FIG. 1C, FIG. 5): rightward shift; agonist or antagonist activities for VPAC1 (VPAC1): no detectable agonist or antagonist activities; agonist or antagonist activities for PAC1 (PAC1): no detectable agonist or antagonist activities
O=C(N[C@H]1c2ccccc2C[C@H]1O)[C@H](Cc1ccccc1)C[C@H](O)CNS(=O)(=O)c1ccc(F)cc1 [Compound X105]	6.03 µM	–	–
O=C(N[C@H]1c2ccccc2C[C@H]1O)[C@H](Cc1ccccc1)C[C@H](O)CNS(=O)(=O)c1ccc(Cl)cc1 [Compound X106]	2.02 µM	0.28 µM	–
CC(O)c1ccc(S(=O)(=O)NC[C@@H](O)C[C@@H](Cc2ccccc2)C(=O)N[C@H]2c3ccccc3C[C@H]2O)cc1 (stereo partly shown) [Compound X107]	40.6 µM	–	–
O=C(N[C@H]1c2ccccc2C[C@H]1O)[C@H](Cc1ccccc1)C[C@H](O)CNS(=O)(=O)c1ccc2c(c1)CCC2 [Compound X108]	10 µM	–	–
O=C(N[C@H]1c2ccccc2C[C@H]1O)[C@H](Cc1ccccc1)C[C@H](O)CNS(=O)(=O)c1ccc2c(c1)OCCO2 [Compound X109]	33.7 µM	0.206 µM	–
O=C(N[C@H]1c2ccccc2C[C@H]1O)[C@H](Cc1ccccc1)C[C@H](O)CNS(=O)(=O)c1ccc2c(c1)OCO2 [Compound X110]	3.81 µM	2.16 µM	–
CCc1ccc(S(=O)(=O)NC[C@@H](O)C[C@@H](Cc2ccccc2)C(=O)N[C@H]2c3ccccc3C[C@H]2O)cc1 [Compound X115]	45.8 µM	1.13 µM	–
CO[C@@H]1Cc2ccccc2[C@@H]1NC(=O)[C@H](Cc1ccccc1)C[C@H](O)CNS(=O)(=O)c1ccc(C(C)=O)cc1 [Compound X124]	–	–	IC50 (VIPR2 [1]; Table 4, read-out: IC50): 76.2 µM
CO[C@@H]1Cc2ccccc2[C@@H]1NC(=O)[C@H](Cc1ccccc1)C[C@H](O)CNS(=O)(=O)c1ccc(Cl)cc1 [Compound X126]	–	–	IC50 (VIPR2 [1]; Table 4, read-out: IC50): 13.3 µM
CO[C@H]1Cc2ccccc2[C@@H]1NC(=O)[C@H](Cc1ccccc1)C[C@H](O)CNS(=O)(=O)c1ccc2c(c1)OCCO2 [Compound X135]	–	–	IC50 (VIPR2 [1]; Table 4, read-out: IC50): 28.2 µM
O=C(N[C@H]1c2ccccc2C[C@H]1O)[C@H](Cc1ccccc1)C[C@H](O)CNS(=O)(=O)c1ccc([N+](=O)[O-])cc1 [Ref C1, reference compound]	–	1.3 µM	% Activity (VIPR2 [2]): 84.52%
